IC50 and Activity data for one compound are collected here from ChEMBL document CHEMBL4130433, “Acridone-pyrimidine hybrids- design, synthesis, cytotoxicity studies in resistant and sensitive cancer cells and molecular docking studies” (Eur J Med Chem, 2017).

In one series the test system is 2008. Put plainly: Antiproliferative activity against human 2008 cells after 72 hrs by MTT assay. In kind it is functional, cell-based. The settings on record: Homo sapiens, 2008, 72 h.
Another series concerns SW1573. Put plainly: Antiproliferative activity against resistant human SW1573 2R 160 cells harboring P-gp after 72 hrs by MTT assay. In kind it is functional, cell-based. The settings on record: SW1573, 72 h. In general terms: Tetrazolium assays rely on reduction of a dye to a coloured formazan, in cell work by metabolically active cells.
For series [1], the system named is Rattus norvegicus. Put plainly: Toxicity in overnight fasted albino Wistar rat assessed as clinical signs at 300 to 5000 mg/kg, po administered as single dose followed by fasting for 3 hrs measured for every 1 hr up to 12 hrs on first day of dosing and thereafter twice in a day for 14 days. In kind it is organism-based. The settings on record: in vivo.
Series [2] deals with Rattus norvegicus. Put plainly: Toxicity in overnight fasted albino Wistar rat assessed as body weight at 300 mg/kg, po administered as single dose followed by fasting for 3 hrs measured on day 1 post dose (reference value: 162 +/- 8 g). In kind it is organism-based. The settings on record: in vivo.
Series [3] concerns Rattus norvegicus. Put plainly: Toxicity in overnight fasted albino Wistar rat assessed as body weight at 2000 mg/kg, po administered as single dose followed by fasting for 3 hrs measured on day 1 post dose (reference value: 162 +/- 8 g). The class given is organism-based. The settings on record: in vivo.
Series [4] concerns Rattus norvegicus. Put plainly: Toxicity in overnight fasted albino Wistar rat assessed as body weight at 5000 mg/kg, po administered as single dose followed by fasting for 3 hrs measured on day 1 post dose (reference value: 162 +/- 8 g). In kind it is organism-based. The settings on record: in vivo.
In series [5] the test system is Rattus norvegicus. Put plainly: Toxicity in overnight fasted albino Wistar rat assessed as body weight at 300 mg/kg, po administered as single dose followed by fasting for 3 hrs measured on day 3 post dose (reference value: 166 +/- 10 g). The class given is organism-based. The settings on record: in vivo.
For series [6], the system named is Rattus norvegicus. Put plainly: Toxicity in overnight fasted albino Wistar rat assessed as body weight at 5000 mg/kg, po administered as single dose followed by fasting for 3 hrs measured on day 3 post dose (reference value: 166 +/- 10 g). In kind it is organism-based. The settings on record: in vivo.
The subject of series [7] is Rattus norvegicus. Put plainly: Toxicity in overnight fasted albino Wistar rat assessed as body weight at 300 mg/kg, po administered as single dose followed by fasting for 3 hrs measured on day 4 post dose (reference value: 169 +/- 5 g). The class given is organism-based. The settings on record: in vivo.
In series [8] the test system is Rattus norvegicus. Put plainly: Toxicity in overnight fasted albino Wistar rat assessed as body weight at 2000 mg/kg, po administered as single dose followed by fasting for 3 hrs measured on day 4 post dose (reference value: 169 +/- 5 g). The class given is organism-based. The settings on record: in vivo.
Series [9] concerns Rattus norvegicus. Put plainly: Toxicity in overnight fasted albino Wistar rat assessed as body weight at 300 mg/kg, po administered as single dose followed by fasting for 3 hrs measured on day 5 post dose (reference value: 172 +/- 14 g). The class given is organism-based. The settings on record: in vivo.
The subject of series [10] is Rattus norvegicus. Put plainly: Toxicity in overnight fasted albino Wistar rat assessed as body weight at 300 mg/kg, po administered as single dose followed by fasting for 3 hrs measured on day 6 post dose (reference value: 173 +/- 12 g). The settings on record: in vivo. In kind it is organism-based.
Series [11] concerns Rattus norvegicus. Put plainly: Toxicity in overnight fasted albino Wistar rat assessed as body weight at 5000 mg/kg, po administered as single dose followed by fasting for 3 hrs measured on day 6 post dose (reference value: 173 +/- 12 g). The class given is organism-based. The settings on record: in vivo.
Series [12] deals with Rattus norvegicus. Put plainly: Toxicity in overnight fasted albino Wistar rat assessed as body weight at 300 mg/kg, po administered as single dose followed by fasting for 3 hrs measured on day 8 post dose (reference value: 177 +/- 8 g). The class given is organism-based. The settings on record: in vivo.
The subject of series [13] is Rattus norvegicus. Put plainly: Toxicity in overnight fasted albino Wistar rat assessed as body weight at 2000 mg/kg, po administered as single dose followed by fasting for 3 hrs measured on day 9 post dose (reference value: 180 +/- 12 g). In kind it is organism-based. The settings on record: in vivo.
Series [14] concerns Rattus norvegicus. Put plainly: Toxicity in overnight fasted albino Wistar rat assessed as body weight at 5000 mg/kg, po administered as single dose followed by fasting for 3 hrs measured on day 9 post dose (reference value: 180 +/- 12 g). The class given is organism-based. The settings on record: in vivo.
Series [15] concerns Rattus norvegicus. Put plainly: Toxicity in overnight fasted albino Wistar rat assessed as body weight at 5000 mg/kg, po administered as single dose followed by fasting for 3 hrs measured on day 10 post dose (reference value: 182 +/- 15 g). In kind it is organism-based. The settings on record: in vivo.
For series [16], the system named is Rattus norvegicus. Put plainly: Toxicity in overnight fasted albino Wistar rat assessed as body weight at 2000 mg/kg, po administered as single dose followed by fasting for 3 hrs measured on day 11 post dose (reference value: 185 +/- 8 g). The class given is organism-based. The settings on record: in vivo.
Series [17] concerns Rattus norvegicus. Put plainly: Toxicity in overnight fasted albino Wistar rat assessed as body weight at 5000 mg/kg, po administered as single dose followed by fasting for 3 hrs measured on day 11 post dose (reference value: 185 +/- 8 g). The settings on record: in vivo. In kind it is organism-based.
For series [18], the system named is Rattus norvegicus. Put plainly: Toxicity in overnight fasted albino Wistar rat assessed as body weight at 300 mg/kg, po administered as single dose followed by fasting for 3 hrs measured on day 12 post dose (reference value: 186 +/- 13 g). In kind it is organism-based. The settings on record: in vivo.
In series [19] the test system is Rattus norvegicus. Put plainly: Toxicity in overnight fasted albino Wistar rat assessed as body weight at 5000 mg/kg, po administered as single dose followed by fasting for 3 hrs measured on day 12 post dose (reference value: 186 +/- 13 g). In kind it is organism-based. The settings on record: in vivo.
Series [20] deals with Rattus norvegicus. Put plainly: Toxicity in overnight fasted albino Wistar rat assessed as body weight at 5000 mg/kg, po administered as single dose followed by fasting for 3 hrs measured on day 13 post dose (reference value: 188 +/- 16 g). In kind it is organism-based. The settings on record: in vivo.

One may read the IC50 as the concentration that gives 50% inhibition. As for `COC(=O)c1c(C)nc(NNC(=O)c2cccc3c(=O)c4ccccc4[nH]c23)nc1-c1ccc(OC)c(OC)c1`, the IC50 in the series with 2008 was determined as 26 µM; in the series on SW1573, 12 µM. Besides, the Activity entry was “Non-Toxic” with Rattus norvegicus [1]; 182 g in the series with Rattus norvegicus [2]; 183 g in the series with Rattus norvegicus [3]; 188 g in the series on Rattus norvegicus [4]; 185 g with Rattus norvegicus [5]; 192 g in the series on Rattus norvegicus [6]. Further, the Activity in the series with Rattus norvegicus [7] turned out to be 186 g; in the series on Rattus norvegicus [8] it was 187 g; with Rattus norvegicus [9], 188 g; with Rattus norvegicus [10], 190 g; in the series on Rattus norvegicus [11] it was 202 g; with Rattus norvegicus [12], 192 g. The Activity with Rattus norvegicus [13] is 199 g; in the series with Rattus norvegicus [14], 212 g; in the series with Rattus norvegicus [15] it was 215 g; in the series on Rattus norvegicus [16], 205 g; with Rattus norvegicus [17], 219 g; in the series with Rattus norvegicus [18] it was 199 g. Besides, the results for the Activity in the series on Rattus norvegicus [19] and in the series with Rattus norvegicus [20] were 221 g and 224 g, respectively.
